System: complementary RNA target
Assay: Thermal dissociation from complementary RNA target (second Example H)
Format: binding
Conditions: for Td: 50% of bound oligomer denatured from RNA target, pH 6.8 denaturation buffer; for ΔTd/DE Bond: per DE bond
Description: The following oligomers [SEQ. ID. NO. ] were tested for their ability to bind a complementary RNA target. Each has the same nucleotide sequence but with a different number of phosphodiester and/or methylphosphonate linkages.
An RNA target containing a tandem array of complementary target sequences connected by noncomplementary sequences (170 nt long) was prepared from synthetic DNA oligonucleotides by standard closing techniques.
Each of the test oligomers (above) was end-labeled with ^32 p using […] and T4 polynucleotide kinase. The resulting labeled oligomers were purified on a Nensorb-20 column (New England Nuclear/DuPont) according to the manufacturer's specifications. The final specific activity of each oligomer ranged between 2×10^6 and 4×10^6 cpm/pmol (Cerenkov radiation). Annealing reactions were prepared with one of the test oligomers (100,000 cpms) and 250 pmols of RNA target in 20 mM potassium phosphate, 0.03% potassium sarkosylate, 0.1 mM EDTA, pH 7.2, total volume--200 μL. These annealing reactions were heated to 80° C. and then cooled slowly to 4° C. over a period of about 4 to 6 hours. Next, 20 μL aliquots from each tube were transferred to separate tubes containing 0.5 mL of 0.1 M sodium phosphate, 0.1% Triton X-100, pH 6.8. This transfer step was done on ice. The resulting tubes were individually heated at various temperatures "denaturation temperatures", ranging from 10 to 70° C.) in a circulating water bath for five minutes and then quickly cooled by immersion in crushed ice. Next, 10 μL of Amine BioMag (Advanced Magnetics, Inc., Cat. No. M-4100, 50 mg/mL stock in water) was added to the tube and it was vortexed briefly and placed back on ice for 5 minutes. During this time period, the RAN target strands (both free and bound) separated onto the magnetic support. […] Thus, the amount of radioactivity bound to the support was proportional to the amount of hybridized oligomer remaining at each denaturation temperature after five minutes. A curve was then plotted for the percentage of hybridized oligomer remaining at each denaturation temperature. The thermal dissociation temperature (Td) was defined as the temperature at which 50% of the bound oligomer had denatured away from the RNA target. The following table summarizes the results from this experiment.

| Substance | Td | ΔTd/DE Bond |
| --- | --- | --- |
| 5'-GpAmTmAmTdCmTmGpCmGmGmTmGmTpCmCmAmT-3' [Oligomer 1362] | 30.7 °C | 0.5 °C |
| 5'-GpAmTmAmTmCmTmGmCmGmGmTmGmTmCmCmAmT-3' [Oligomer 1036] | 29.3 °C | – |
| 5'-GpAmTmAmTmCpTmGmCpGmGmTmGmTmCpCpAmT-3' [Oligomer 1361] | 32.2 °C | 0.7 °C |
| 5'-GpAmTpAmTpCmTpGmCmGmGmTpGmTpCmCmAmT-3' [Oligomer 1359] | 34.0 °C | 0.9 °C |
| 5'-GpAmTpAmTpCpTpGmCpGmGmTpGmTpCpCpAmT-3' [Oligomer 1363] | 45.2 °C | 1.8 °C |

From patent publication US5986083A, “Synthetic oligomers having phosphonate internucleosidyl linkages of undefined chirality mixed with non-phosphonate internucleosidyl linkages” (priority 1994, dated 1999)
